Here are results for 16 molecules from patent US20160045505A1, “COMPOUNDS AND COMPOSITIONS FOR THE TREATMENT OF PARASITIC DISEASES” (NOVARTIS AG, priority 2013, published 2016).

Experiment [1] has as its system Leishmania donovani axenic amastigote parasites. In words: Leishmania donovani axenic amastigote proliferation assay (Cell TiterGlo luminescence, 2 day incubation). Format: cell-based. To be noted: Leishmania donovani, read-out: L. donovani amastigotes EC50. A general note: ATP-based viability assays read luminescence as a measure of living cells.
Experiment [2] deals with L. donovani HU3 strain in mouse peritoneal macrophages. In words: Assay for proliferation of Leishmania parasites in infected mouse peritoneal macrophages (SybrGreen staining, high-content imaging, 5 days). Format: cell-based, Leishmania donovani. To be noted: Leishmania donovani, Peritoneal macrophage, L. donovani in mouse peritoneal macrophages, read-out: L. donovani Macrophage EC50.

Experiment [3] deals with Trypanosoma brucei Lister 427 strain, bloodstream form. In words: Assay for proliferation of kinetoplastid parasite Trypanosoma brucei (Cell Titer Glo, 48 hours). To be noted: Trypanosoma brucei, T. brucei Lister 427 bloodstream form, read-out: T. brucei EC50. The experiment is classed as cell-based. From the text:
Assay for Proliferation of Kinetoplastid Parasite Trypanosoma brucei.
The proliferation is quantified by the addition of Cell Titer Glo (Promega®) a luminescent cell viability assay that measures the number of viable cells in culture based on the quantification of cellular ATP amount, which is an indicator of metabolically active cells.
The following assay illustrates the invention without in any way limiting the scope of the invention. This parasite proliferation assay measures the increase in parasite growth using an assay that measures ATP activity, Cell Titer Glo®.
Trypanosoma brucei Lister 427 strain is grown in HMI-9 Trypanosome media for T. brucei bloodstream form. 30 μl of HMI-9 media is dispensed into 384 well assay plates. 200 nl of compounds of the invention (in DMSO), including anti-trypanosome controls (Pentamidine and suramin), are then transferred into the assay plates, as well as DMSO alone to serve as a negative control for inhibition. Then 25 μl of a suspension of T. brucei culture in HMI-9 media is dispensed into the assay plates. The final concentration of parasites in culture corresponds to 1.7% of 0.5 uM ATP activity with Cell Titer Glo® in HMI-9 media. The plates are placed in a 37° C. incubator for 48 hours in an atmospheric environment containing 5% CO2. 40 μl of Cell Titer Glo® is dispensed into the plates. The plates are then read for luminescence. The percentage inhibition of 50%, EC50, is calculated for each compound.

The mark [4] stands for this setting: axenic amastigotes, inhibition of proliferation.

Molecules are shown by their SMILES. Read-outs that look alike come from different tables or passages of the source.

Usually EC50 stands for the concentration at which the effect is half-maximal. For `CC(C)Nc1cnc2nc(-c3cc(NC(=O)N4CC(F)C4)ccc3F)cn2c1` [Compound 592], the values for the EC50 in experiment [1] (L. donovani axenic amastigotes), in experiment [2] and in experiment [3] were 145 nM, 428 nM and 53 nM, respectively.

With `Cc1nc(C)c(C(=O)Nc2ccc(F)c(-c3cn4cc(-c5ccc(CCO)cn5)cnc4n3)c2)o1` [Compound 350], the values for the 50% effective concentration (EC50) in experiment [1] (setting [4]), in experiment [2] (inhibition of proliferation) and in experiment [3] (inhibition of proliferation) were 16 nM, 128 nM and 53 nM, respectively.

As to `O=C(Nc1ccc(F)c(-c2cn3cc(F)cnc3n2)c1)N1CCCC1` [Compound 514], the 50% effective concentration (EC50) in experiment [1] (L. donovani axenic amastigotes) amounted to 641 nM; in experiment [2] it was 1640 nM; in experiment [3], 84 nM.

Consider `Cc1ccc(C(=O)Nc2ccc(Cl)c(-c3cn4cc(-c5ccccc5)cnc4n3)c2)o1` [Compound 31, N-(4-chloro-3-(6-phenylimidazo[1,2-a]pyrimidin-2-yl)phenyl)-5-methylfuran-2-carboxamide], for which the half-maximal effective concentration (EC50) turned out to be 169 nM in experiment [1] (setting [4]), 243 nM in experiment [2] (inhibition of proliferation) and 67.7 nM in experiment [3] (inhibition of proliferation).

`CC(C)(C)OC(=O)Nc1cnc2nc(-c3cc(NC=O)ccc3F)cn2c1` [Compound 532, tert-butyl (2-(2-fluoro-5-formamidophenyl)imidazo[1,2-a]pyrimidin-6-yl)carbamate]: the EC50 in experiment [1] (L. donovani axenic amastigotes) was 13900 nM; in experiment [2], greater than 50000 nM; in experiment [3] it was 17800 nM.

As for `CCN(CC)C(=O)Nc1cccc(-c2cn3cc(NC(=O)OC(C)C)cnc3n2)c1` [Compound 16], the results for the EC50 in experiment [1] (setting [4]), in experiment [2] (inhibition of proliferation) and in experiment [3] (inhibition of proliferation) were greater than 25000 nM, 14000 nM and 1640 nM, respectively.

Regarding `CCN(C)C(=O)Nc1cccc(-c2cn3cc(NC(=O)OC(C)C)cnc3n2)c1` [Compound 6], the EC50 turned out to be 22300 nM in experiment [1] (setting [4]), 9200 nM in experiment [2] (inhibition of proliferation) and 664 nM in experiment [3] (inhibition of proliferation).

Consider `COCCOC(=O)Nc1ccc(Cl)c(-c2cn3cc(-c4ccsc4)cnc3n2)c1` [Compound 34], for which the EC50 was determined as 258 nM in experiment [1] (setting [4]), 750 nM in experiment [2] (inhibition of proliferation) and 492 nM in experiment [3] (inhibition of proliferation).

`O=C(Nc1cnc2nc(-c3cc(NC(=O)N4CCCC4)ccc3F)cn2c1)OCc1ccccc1` [Compound 512, benzyl (2-(2-fluoro-5-(pyrrolidine-1-carboxamido)phenyl)imidazo[1,2-a]pyrimidin-6-yl)carbamate]: the EC50 in experiment [1] (L. donovani axenic amastigotes) worked out at 211 nM; in experiment [2] it was 2990 nM; in experiment [3], 76 nM.

On to `CNc1ccc(-c2cnc3nc(-c4cc(NC(=O)c5ccc(C)o5)ccc4Cl)cn3c2)cc1` [Compound 33, N-(4-chloro-3-(6-(4-(methylamino)phenyl)imidazo[1,2-a]pyrimidin-2-yl)phenyl)-5-methylfuran-2-carboxamide], for which the EC50 was determined as 370 nM in experiment [1] (setting [4]), 660 nM in experiment [2] (inhibition of proliferation) and 188 nM in experiment [3] (inhibition of proliferation).

Turning to `CCOC(=O)Nc1ccc(Cl)c(-c2cn3cc(-c4ccc(NC)cc4)cnc3n2)c1` [Compound 37], the 50% effective concentration (EC50) in experiment [1] (setting [4]) came to 610 nM; in experiment [2] (inhibition of proliferation), 3010 nM; in experiment [3] (inhibition of proliferation), 197 nM.

For `CCN(C)C(=O)Nc1ccc(F)c(-c2cn3cc(NC(=O)OC(C)C)cnc3n2)c1` [Compound 9], the concentration for a half-maximal effect (EC50) came out at 2480 nM in experiment [1] (setting [4]), 1320 nM in experiment [2] (inhibition of proliferation) and 191 nM in experiment [3] (inhibition of proliferation).

Consider `CN(CC(F)(F)F)C(=O)Nc1ccc(F)c(-c2cn3cc(Br)cnc3n2)c1` [Compound 586, 3-(3-(6-bromoimidazo[1,2-a]pyrimidin-2-yl)-4-fluorophenyl)-1-methyl-1-(2,2,2-trifluoroethyl)urea], for which the EC50 in experiment [1] (L. donovani axenic amastigotes) turned out to be 552 nM; in experiment [2], 4000 nM; in experiment [3] it was 59 nM.

With `Cc1nc(C)c(C(=O)Nc2cccc(-c3cn4cc(NC(=O)OC(C)C)cnc4n3)c2)o1` [Compound 22], the values for the EC50 in experiment [1] (setting [4]), in experiment [2] (inhibition of proliferation) and in experiment [3] (inhibition of proliferation) were 1240 nM, 530 nM and 384 nM, respectively.

Regarding `CC(C)OC(=O)Nc1cnc2nc(-c3cccc(NC(=O)c4nccs4)c3)cn2c1` [Compound 11], the half-maximal effective concentration (EC50) came out at 3800 nM in experiment [1] (setting [4]), 5000 nM in experiment [2] (inhibition of proliferation) and 659 nM in experiment [3] (inhibition of proliferation).

For `CC(C)Nc1ccc(F)c(-c2cn3cc(NC(=O)OC(C)C)cnc3n2)c1` [Compound 523], the values for the EC50 in experiment [1] (L. donovani axenic amastigotes), in experiment [2] and in experiment [3] were greater than 25000 nM, 37700 nM and greater than 50000 nM, respectively.
